The values that follow come from patent publication US5128369A, “Arylalkylamine derivatives” (Kyowa Hakko Kogyo Co., Ltd., priority 1989, dated 1992).

A value given as a limit tells only on which side of the number the result lay.

Data set [1] concerns tracheae (zig-zag strips from passively sensitized guinea pigs). Nature of the data set: passive Schultz-Dale reaction (bronchodilatory effects), relaxation of antigen-contracted tracheal strips. Set-up: species or system guinea pig (male Hartley). Particulars: Cavia porcellus; EWA (1 μg/ml)-induced contraction, guinea pig trachea, 37° C., cumulative addition; read-out: Bronchodilatory effect IC50 (concentration to produce 50% relaxation). Here is the method:
Effects on passive Schultz-Dale reaction (bronchodilatory effects)
After 24 hours, the guinea pigs were stunned and exsanguinated, and then tracheae were removed. The zig-zag strips of the tracheae were prepared by the method of Emmerson, et al. [J. Pharm. […] After the contraction reached stable plateau, the compounds were cumulatively added in order to get concentration-relaxation curves.

For a further data set, the system named is PCA reaction. Nature of the data set: 48 hour-homologous passive cutaneous anaphylaxis (PCA) test in rats (antiallergic effects). The format is in vivo, rat (male Wistar). Also noted: key to Anti-PCA MED (minimum effective dosage): NE: no effect. Particulars: rat, oral, 1 hour before PCA challenge, inhibition 50% or higher in at least one of three animals; for minimal effective dose: read-out: Anti-PCA MED (minimum effective dosage). The method, then:
Antiallergic effects: Antiallergic effects of compounds were studied by passive cutaneous anaphylaxis (PCA) test in rats. Male Wistar rats weighing 180 to 220 g were used for collection of antiserum and Male Wistar rats weighing 120 to 140 g for PCA test. (A) Preparation of anti-EWA serum in rat Anti-EWA rat serum was prepared by the method of Stotland, et al [Can. J. Physiol. Pharmacol., 52, 1114, (1974)] as follows. That is, 1 mg of EWA, 20 mg of aluminium hydroxide gel and 0.5 ml of mixed vaccine of pertussis, diphtheria and tetanus were mixed, and the mixture was subcutaneously injected in four foodpads of rats. After 14 days, the blood of sensitized rats was collected from the carotid artery. The serum was separated by centrifugation from collected blood, and stored at -80° C. The 48 hour homologous PCA titer of the serum was 1 :64. (B) Effects on 48 hour-homologous PCA tests in rats Three rats in each group were passively sensitized with 8 hold diluted anti-EWA serum (0.05 ml) intradermally injected in two sites of shaved dosal area of rats. After 47 hours, the test compound or its solvent (saline or CMC solution) was orally administrated, and 1 hour thereafter, PCA reaction was induced by intravenous administration of 1% Evan's blue in saline (0.5 ml/100 g) containing 2 mg of EWA. After 30 minutes, animals were sacrificed by bleeding and dorsal skin was stripped to determine the leakage of dye at blue spots, by the method of Katayama et al. [Microbiol. Immunol., 22, 89 (1978)]. The blue-dyed spots were dissected and placed in a test tube containing 1 ml of 1N sodium hydroxide and incubated at 37° C. for 48 hours. Then, 9 ml of a mixture of 0.6N phosphate:acetone (5:13) was added thereto. After shaking, the mixture was centrifuged at 2500 rpm for 10 minutes. A supernatant was separated, and extravasated dye in the supernatant was determined photometrically at 620 nm. Inhibition percent was calculated as follows: [formula]

For another data set, the system named is dd-mice. In words: Acute toxicity (minimum lethal dose). The class given is in vivo. As to conditions: male dd-mice, mortality for seven days. Here is the method:
The compounds were orally administrated (po) or intraperitoneally administrated (ip) to three male dd-mice weighing 20±1 g. Minimum lethal dose (MLD) was determined by observing the mortality for seven days after the administration.

Take `CC(CC1OCCc2ccccc21)NCC(O)c1ccc(Cl)cc1` (centres unmarked) [Compound 17, 1-(4-Chlorophenyl)-2-[2-(isochroman-1-yl)-1-methylethylamino]ethanol]: the IC50 in data set [1] was determined as 3400 nM. The minimal effective dose with PCA reaction was found to be 1 mg/kg. Also, in the data set on dd-mice, the “Acute Toxicity MLD ip (minimum lethal dose)” value (“Acute Toxicity MLD ip” below) was found to be 100 mg/kg and the “Acute Toxicity MLD po (minimum lethal dose)” value (from here on “Acute Toxicity MLD po”) is reported as 100 mg/kg.
`CC(CC1OCCc2ccccc21)NCC(O)c1cccs1` (centres unmarked) [Compound 20, 2-[2-(Isochroman-1-yl)-1-methylethylamino]-1-thienylethanol]: in data set [1], the IC50 was 36.1 nM. Besides, the “Anti-PCA MED (minimum effective dosage)” value with PCA reaction is on record as “NE”. In addition, in the data set on dd-mice, the “Acute Toxicity MLD ip” value was more than 100 mg/kg and the “Acute Toxicity MLD po” value is more than 300 mg/kg.
For the compound `CC(CC1OCCc2ccccc21)NC[C@H](O)c1ccc(O)cc1` (some centres unmarked) [Compound 2, (IR)-1-(4-hydroxyphenyl)-2-[2-(isochroman-1-yl)-1-methylethylamino]ethanol], in data set [1], the IC50 was 0.612 nM. Besides, the minimal effective dose in the data set on PCA reaction was found to be 10 mg/kg. In the data set with dd-mice, the “Acute Toxicity MLD ip” value is more than 100 mg/kg and the “Acute Toxicity MLD po” value was more than 300 mg/kg.
As for `Oc1ccc(C(O)CNCCC2OCCc3ccccc32)cc1` (centres unmarked) [Compound 23, 1-(4-Hydroxyphenyl)-2-[2-(isochroman-1-yl)ethylamino]ethanol], the IC50 in data set [1] is 8.76 nM.
Regarding `CC(CC1OCCc2ccccc21)NC(C)C(O)c1ccc(O)cc1` (centres unmarked) [Compound 24, 1-(4-Hydroxyphenyl)-2-[2-(isochroman-1-yl)-1-methylethylamino]-1-propanol], the IC50 in data set [1] came to 1600 nM. Besides, the “Anti-PCA MED (minimum effective dosage)” value in the data set on PCA reaction is recorded as “NE”. For the same compound, in the data set with dd-mice, the “Acute Toxicity MLD ip” value is more than 100 mg/kg and the “Acute Toxicity MLD po” value is given as more than 300 mg/kg.
On to `COC(CNC(C)CC1OCCc2ccccc21)c1ccc(O)cc1` (centres unmarked) [Compound 25, 2-(4-Hydroxyphenyl)-N-[2-(isochroman-1-yl)-1-methylethylamino]-2-methoxyethylamine], for which the IC50 in data set [1] was found to be 2.4 nM. Besides, the “Anti-PCA MED (minimum effective dosage)” value in the data set on PCA reaction is given as “NE”.
On to `CC(CC1OCCc2ccccc21)NC[C@H](O)c1ccccc1` (stereo partly drawn) [Compound 5, (1R)-2-[2-(Isochroman-1-yl)-1-methylethylamino]-1-phenylethanol], for which the IC50 in data set [1] was 19 nM. Further, the minimal effective dose with PCA reaction is 1 mg/kg. In addition, in the data set with dd-mice, the “Acute Toxicity MLD ip” value was found to be 25 mg/kg and the “Acute Toxicity MLD po” value is listed as 200 mg/kg.
The like results for `CC(CC1OCCc2ccccc21)NCC(O)c1ccc(O)cc1` (centres unmarked) [Compound 1, 1-(4-Hydroxyphenyl)-2-[2-(isochroman-1-yl)-1-methylethylamino]ethanol] were, in that order, 12.8 nM, 10 mg/kg, more than 100 mg/kg and more than 300 mg/kg.
As to `COc1ccc(C(O)CNC(C)CC2OCCc3ccccc32)cc1` (centres unmarked) [Compound 10, 2-[2-(Isochroman-1-yl)-1-methylethylamino]-1-(4-methoxyphenyl)ethanol], the IC50 in data set [1] stood at 81 nM. Further, the minimal effective dose with PCA reaction stood at 10 mg/kg. In the data set on dd-mice, the “Acute Toxicity MLD ip” value is given as 100 mg/kg and the “Acute Toxicity MLD po” value was 200 mg/kg.
As for `CC(CC1OCCc2ccccc21)NCC(O)Cc1ccccc1` (centres unmarked) [Compound 26, 1-[2-(Isochroman-1-yl)-1-methylethylamino]-3-phenyl-2-propanol], in data set [1], the IC50 came out at 9040 nM. In addition, in the data set on PCA reaction, the “Anti-PCA MED (minimum effective dosage)” value is “NE”.
For `CC(CC1OCCc2ccccc21)NCC(O)c1cccc(O)c1` (centres unmarked) [Compound 7, 1-(3-Hydroxyphenyl)-2-[2-(isochroman-1-yl)-1-methylethylamino]ethanol], in data set [1], the IC50 is 11 nM. Also, in the data set with PCA reaction, the minimal effective dose was determined as 10 mg/kg. In the data set with dd-mice, the “Acute Toxicity MLD ip” value is on record as 100 mg/kg and the “Acute Toxicity MLD po” value came out at 300 mg/kg.
For `CC(CC1c2ccccc2CCN1C)NCC(O)c1ccc(O)cc1` (centres unmarked) [Compound 31, 1-(4-Hydroxyphenyl)-2-[1-methyl-2-(2-methyl-1,2,3,4-tetrahydroisoquinolin-1-yl)ethylamino]ethanol], the IC50 in data set [1] was determined as 85 nM. In addition, the “Anti-PCA MED (minimum effective dosage)” value in the data set with PCA reaction was “NE”. In the data set on dd-mice, the “Acute Toxicity MLD ip” value is more than 100 mg/kg and the “Acute Toxicity MLD po” value is listed as more than 300 mg/kg.
Taken in the same sequence, the figures for `CC(CC1OCCc2ccccc21)NC[C@@H](O)c1ccccc1` (stereo partly drawn) [Compound 6, (1S)-2-[2-(Isochroman-1-yl)-1-methylethylamino]-1-phenylethanol] were 12000 nM, “NE”, more than 100 mg/kg and 200 mg/kg.
Regarding `CC(CC1OCCc2ccccc21)NC[C@@H](O)c1ccc(O)cc1` (stereo partly drawn) [Compound 3, (1S)-1-(4-hydroxyphenyl)-2-[2-(isochroman-1-yl)-1-methylethylamine]ethanol], the IC50 in data set [1] amounted to 2.76 nM. Further, in the data set with PCA reaction, the “Anti-PCA MED (minimum effective dosage)” value is “NE”.
With `CC(CC1CCCc2ccccc21)NCC(O)c1ccc(O)cc1` (centres unmarked) [Compound 30, 1-(4-Hydroxyphenyl)-2-[2-(1,2,3,4-tetrahydro-1-naphthyl)-1-methylethylamino]ethanol], the IC50 in data set [1] was 1.95 nM. For the same compound, the minimal effective dose in the data set with PCA reaction came out at 10 mg/kg. For the same compound, in the data set on dd-mice, the “Acute Toxicity MLD ip” value is more than 100 mg/kg and the “Acute Toxicity MLD po” value was more than 300 mg/kg.
In the case of `CC(CC1OCCc2ccccc21)NCC(O)c1ccccc1O` (centres unmarked) [Compound 8, 1-(2-Hydroxyphenyl)-2-[2-(isochroman-1-yl)-1-methylethylamino]ethanol], in data set [1], the IC50 worked out at 53 nM. For the same compound, the “Anti-PCA MED (minimum effective dosage)” value with PCA reaction is listed as “NE”. Besides, in the data set on dd-mice, the “Acute Toxicity MLD ip” value is 100 mg/kg and the “Acute Toxicity MLD po” value is listed as 200 mg/kg.
With `CC(CC1OCCc2ccccc21)NCC(O)c1ccc(F)cc1` (centres unmarked) [Compound 16, 1-(4-Fluorophenyl)-2-[2-(isochroman-1-yl)-1-methylethylamino]ethanol], the IC50 in data set [1] turned out to be 61.4 nM. Further, the “Anti-PCA MED (minimum effective dosage)” value in the data set on PCA reaction is given as “NE”. In the data set on dd-mice, the “Acute Toxicity MLD ip” value is listed as more than 100 mg/kg and the “Acute Toxicity MLD po” value was 300 mg/kg.
For `CC(CC1OCCc2ccccc21)NCC(O)c1cc(O)cc(O)c1` (centres unmarked) [Compound 9, 1-(3,5-Dihydroxyphenyl)-2-[2-(isochroman-1-yl)-1-methylethylamino]ethanol], the IC50 in data set [1] is 1.18 nM. Moreover, the “Acute Toxicity MLD po” value in the data set with dd-mice is 200 mg/kg.
For the compound `CC(CC1OCCc2ccccc21)NCC(O)c1ccccc1` (centres unmarked) [Compound 4, 2-[2-(Isochroman-1-yl)-1-methylethylamino]-1-phenylethanol], in data set [1], the IC50 amounted to 260 nM. In the data set on PCA reaction, the minimal effective dose turned out to be 10 mg/kg. Also, in the data set with dd-mice, the “Acute Toxicity MLD ip” value was 100 mg/kg and the “Acute Toxicity MLD po” value was 200 mg/kg.
